Measured values as given in US8207154B2, “Catatonic bacteriochlorophyll derivatives” (Yeda Research and Development Co., Ltd., priority 2005, dated 2012).
Where two headings read alike, the source gives them in different places.

System: H5V cells
Test: Phototoxicity assay (PDT efficacy at two incubation times), neutral red survival
Assay type: cell-based, mouse
Settings: then 10 min illumination, 12 J/cm^2
Experimental: H5V cells (40×10^3/well) were cultured in 96-well plates for 24 h to ˜80% confluence. To determine phototoxicity, the culture medium was replaced with 100 μl/well medium, in the absence or presence of 10^−8 to 10^−6 M sensitizer, and incubated in the dark for 15 min or 3 h in the culture incubator. The plates (PDT group) were then placed in the light field at room temperature and illuminated from the bottom for 10 min (800>λ>650 nm, 12 J/cm^2). After illumination, the medium was changed to fresh culture medium. The cultures were then placed in the culture incubator and cell survival was determined 24 h later, using the neutral red survival assay described below.
Following 24 h post PDT the culture medium in the wells was replaced with 100 μl fresh medium containing 40 μg/ml neutral red. The plate was incubated for 1.5 h in a dark culture incubator. The medium was aspirated and the cells washed with 100 μl of solution containing 1% CaCl2 and 0.5% formaldehyde, which removes the unincorporated dye and fixes the cells to the substratum. The dye was then extracted from the cells into the supernatant upon addition of 100 μl 1% glacial acetic acid in 50% ethanol. After 1-2 min at room temperature, the optical density of the wells was determined in a microplate spectrophotometer using a 570 nm filter. After subtraction of assay blanks, net optical density was computed as the average value of triplicate determinations. Cell survival was calculated as the percent of the dye accumulated in the untreated control. To determine cell survival data was plotted against sensitizer concentration. These curves were then used to calculated LD50 values.
Following synthesis, the compounds described in the Examples 23 to 75 above were purified, divided into equal aliquots and lyophilized for storage (desiccated at −20° C.). The exact material content was determined by HPLC-diode array detection, and the PDT efficacy was evaluated at two incubation times as described in the experimental section.

[1] = 15 min incubation in the dark, read-out: IC50 15 min
[2] = 3 h incubation in the dark, read-out: IC50 3 hours

Compound | IC50 [1] | IC50 [2]
CC[C@H]1C2=NC(=Cc3c(C(C)=O)c(C)c4[n]3[Pd][n]3c(c(C)c(C(=O)NCCCN)c3=C(CC(=O)OC)C3=NC(=C4)[C@@H](C)[C@@H]3CCC(=O)NCCCN)=C2)[C@@H]1C [Compound 34, Palladium 3^1-oxo-15-methoxycarbonylmethyl-Rhodobacteriochlorin-13^1, 17^3-di(3-aminopropyl)amide] | 480 nM | 200 nM
Palladium 3^1-oxo-15-methoxycarbonylmethyl-Rhodobacteriochlorin-13^1-(2-N^2-dimethylaminoethyl)amide-17^3-(glycosyl) amide [Compound 75] | 500 nM | 160 nM
CC(=O)O.CC(=O)O.CC(=O)O.CC[C@H]1C2=NC(=Cc3c(C(C)=O)c(C)c4[n]3[Pd][n]3c(c(C)c(C(=O)NCCN(CCN)CCN)c3=C(CC(=O)OC)C3=NC(=C4)[C@@H](C)[C@@H]3CCC(=O)NCC(O)CO)=C2)[C@@H]1C (stereo partly shown) [Compound 59, Palladium 3^1-oxo-15-methoxycarbonylmethyl-Rhodobacteriochlorin-13^1-([2-bis(2-aminoethyl)amine]ethyl)amide-17^3-(2,3-dihydroxypropyl)amide] | 450 nM | 190 nM
CC[C@H]1C2=NC(=Cc3c(C(C)=O)c(C)c4[n]3[Pd][n]3c(c(C)c(C(=O)NCCN)c3=C(CC(=O)OC)C3=NC(=C4)[C@@H](C)[C@@H]3CCC(=O)NCCN)=C2)[C@@H]1C [Compound 10, Palladium 3^1-oxo-15-methoxycarbonylmethyl-Rhodobacteriochlorin-13^1, 17^3-di(2-aminoethyl)amide] | 740 nM | 240 nM
CC(=O)O.CC[C@H]1C2=NC(=Cc3c(C(C)=O)c(C)c4[n]3[Pd][n]3c(c(C)c(C(=O)NCCN(C)C)c3=C(CC(=O)OC)C3=NC(=C4)[C@@H](C)[C@@H]3CCC(=O)NCCCO)=C2)[C@@H]1C [Compound 66, Palladium 3^1-oxo-15-methoxycarbonylmethyl-Rhodobacteriochlorin-13^1-(2-N^2-dimethylaminoethyl)amide-17^3-(3-hydroxypropyl)amide] | 550 nM | 200 nM
CC[C@H]1C2=NC(=Cc3c(C(C)=O)c(C)c4[n]3[Pd][n]3c(c(C)c(C(=O)NCCCN(C)C)c3=C(CC(=O)OC)C3=NC(=C4)[C@@H](C)[C@@H]3CCC(=O)O)=C2)[C@@H]1C [Compound 26, Palladium 3^1-oxo-15-methoxycarbonylmethyl-Rhodobacteriochlorin-13^1-(3-N^2-dimethylaminopropyl)amide] | 1000 nM | 450 nM
CC[C@H]1C2=NC(=Cc3c(C(C)=O)c(C)c4[n]3[Pd][n]3c(c(C)c(C(=O)NCCN5CCOCC5)c3=C(CC(=O)OC)C3=NC(=C4)[C@@H](C)[C@@H]3CCC(=O)O)=C2)[C@@H]1C [Compound 29, Palladium 3^1-oxo-15-methoxycarbonylmethyl-Rhodobacteriochlorin-13^1-(2-morpholino-N-ethyl)amide] | 1900 nM | 1900 nM
CC(=O)[O-].CC(=O)[O-].CC[C@H]1C2=NC(=Cc3c(C(C)=O)c(C)c4[n]3[Pd][n]3c(c(C)c(C(=O)NCC[N+](C)(C)C)c3=C(CC(=O)OC)C3=NC(=C4)[C@@H](C)[C@@H]3CCC(=O)NCC[N+](C)(C)C)=C2)[C@@H]1C [Compound 33, Palladium 3^1-oxo-15-methoxycarbonylmethyl-Rhodobacteriochlorin-13^1, 17^3-di(2-N^3-trimethylammoniumethyl)amide diacetate salt] | 750 nM | 450 nM
CC(=O)O.CC(=O)O.CC[C@H]1C2=NC(=Cc3c(C(C)=O)c(C)c4[n]3[Pd][n]3c(c(C)c(C(=O)NCC(O)CO)c3=C(CC(=O)OC)C3=NC(=C4)[C@@H](C)[C@@H]3CCC(=O)NCCCCNc3ccccn3)=C2)[C@@H]1C (stereo partly shown) [Compound 74, Palladium 3^1-oxo-15-methoxycarbonylmethyl-Rhodobacteriochlorin-13^1-(2,3-dihydroxypropyl)amide-17^3-(4-N-(2′-pyridyl)aminobutyl)amide] | 740 nM | 290 nM
CC[C@H]1C2=NC(=Cc3c(C(C)=O)c(C)c4[n]3[Pd][n]3c(c(C)c(C(=O)NCCN5CCOCC5)c3=C(CC(=O)OC)C3=NC(=C4)[C@@H](C)[C@@H]3CCC(=O)NCCN3CCOCC3)=C2)[C@@H]1C [Compound 40, Palladium 3^1-oxo-15-methoxycarbonylmethyl-Rhodobacteriochlorin-13^1, 17^3-di(2-morpholino-N-ethyl)amide] | 700 nM | 350 nM
Palladium 3^1-oxo-15-methoxycarbonylmethyl-Rhodobacteriochlorin-13^1-(3-aminopropyl)amide-17^3-(2,3-dihydroxypropyl)amide [Compound 60] | 620 nM | 240 nM
Palladium 3^1-oxo-15-methoxycarbonylmethyl-Rhodobacteriochlorin-13^1-(2-N^2-diethylaminoethyl)amide-17^3-(2,3-dihydroxy propyl)amide [Compound 62] | 630 nM | 190 nM
CC[C@H]1C2=NC(=Cc3c(C(C)=O)c(C)c4[n]3[Pd][n]3c(c(C)c(C(=O)NCC(O)CO)c3=C(CC(=O)OC)C3=NC(=C4)[C@@H](C)[C@@H]3CCC(=O)NCCN(C)C)=C2)[C@@H]1C (stereo partly shown) [Compound 49, Palladium 3^1-oxo-15-methoxycarbonylmethyl-Rhodobacteriochlorin-13^1-(2,3-dihydroxypropyl)amide-17^3-(2-N^2-dimethylaminoethyl)amide] | 1150 nM | 570 nM
CC(=O)O.CC[C@H]1C2=NC(=Cc3c(C(C)=O)c(C)c4[n]3[Pd][n]3c(c(C)c(C(=O)NCCN(C)C)c3=C(CC(=O)OC)C3=NC(=C4)[C@@H](C)[C@@H]3CCC(=O)NC[C@H](C)O)=C2)[C@@H]1C [Compound 69, Palladium 3^1-oxo-15-methoxycarbonylmethyl-Rhodobacteriochlorin-13^1-(2-N^2-dimethylaminoethyl)amide-17^3-((S)-2-hydroxypropyl)amide] | 500 nM | 160 nM
CC[C@H]1C2=NC(=Cc3c(C(C)=O)c(C)c4[n]3[Pd][n]3c(c(C)c(C(=O)NCCN(CCN)CCN)c3=C(CC(=O)OC)C3=NC(=C4)[C@@H](C)[C@@H]3CCC(=O)O)=C2)[C@@H]1C [Compound 28, Palladium 3^1-oxo-15-methoxycarbonylmethyl-Rhodobacteriochlorin-13^1-([2-bis(2-aminoethyl)amino]ethyl)amide] | 1300 nM | 380 nM
CCC1C2=Cc3c(C)c(C(=O)NCCN)c4[n]3[Pd][n]3c(c(C)c(C(C)=O)c3=CC(=N2)C1C)=CC1=NC(=C4CC(=O)OC)C(CCC(=O)NCC(O)CO)C1C (stereo not shown) [Compound 48, Palladium 3^1-oxo-15-methoxycarbonylmethyl-Rhodobacteriochlorin-13^1-(2-aminoethyl)amide-17^3-(2,3-dihydroxypropyl) amide] | 600 nM | 200 nM
CCC1C2=Cc3c(C)c(C(=O)NCCNCCN(CC)CC)c4[n]3[Pd][n]3c(c(C)c(C(C)=O)c3=CC(=N2)C1C)=CC1=NC(=C4CC(=O)OC)C(CCC(=O)NCCNCCN(CC)CC)C1C (stereo not shown) [Compound 39, Palladium 3^1-oxo-15-methoxycarbonylmethyl-Rhodobacteriochlorin-13^1,17^3-di-(2-[(2-N^2-diethylaminoethyl)amino]ethyl) amide] | 2440 nM | 1100 nM
